Measurements from US20160075680A1, “MODIFIED SOLID SUPPORT FOR THE SYNTHESIS OF OLIGONUCLEOTIDES” (FUNDACIÓN IMDEA NANOCIENCIA, priority 2013, published 2016).

Assay: Comparative in vitro release of Oligo-3 and Oligo-4 from gold nanoparticles with glutathione, followed by fluorescence
Conditions: PBS, glutathione final concentration 1 mM, Ex: 470, Em: 517 nm
Method: To a solution of modified gold nanoparticles prepared in Example 9 in PBS bearing the Oligo-3 or Oligo-4 was added glutathione (final concentration 1 mM). The in vitro release of the oligonucleotides bearing the fluorescein molecule is followed by fluorescence. The fluorescence was recorded at different periods of time. […] Particularly, in the case of Oligo-3, the fluorescence increases fast due to the release of the oligonucleotide from the gold nanoparticle in the presence of glutathione at 1 mM. The fluorescence is quenched when fluorescein is close to the gold nanoparticle, but it increases over time due to the release of the fluorescent oligonucleotide in the presence of glutathione. […] Ex: 470, Em: 517 nm.

Substance	in vitro release of the fluorescein oligonucleotide from gold nanoparticles
Oligo-3: TTTTTTTTTT (SEQ ID NO: 3), fluorescein at position 5′ and the modification herein reported at position 3′ (5' fluorescein; 3' modification; Oligonucleotide sequence as in Oligo-3 and Oligo-4)	release takes place efficiently
Oligo-4: TTTTTTTTTT (SEQ ID NO: 3), fluorescein at 5′, dithiolane group at 3′ but not the disulfide group; comparative (5' fluorescein; 3' dithiolane; Oligonucleotide sequence as in Oligo-3 and Oligo-4)	inefficient release
